# Laboratory results from patent US20190388389A1, “METHODS AND COMPOSITIONS OF CARNOSOL FOR INHIBITING UVB-INDUCED SKIN DAMAGE” (Ohio University, priority 2017, published 2019).
# How the values were obtained:
# [1] = system: ONOO^− in HaCaT cells; assay: Peroxynitrite measurement (DAR) after UVB radiation; format: cell-based, Human; conditions: 20 μM carnosol
# Procedure: (§1) FIGS. 4A-4B: Quantitative analysis of NO* and ONOO^− after UVB radiation. HaCaT cells were irradiated with UVB radiation in the presence or absence of carnosol (20 μM). At indicated time point, cells were stained with DAF-2DA or DAR. The fluorescent intensity was then measured and normalized to cell viability. (FIG. 4A) Quantitative measurement of NO*. (FIG. 4B) Quantitative measurement of ONOO^−. *p<0.05 versus corresponded group with carnosol treatment upon UVB radiation.
# (§2) The level of NO* was measured by 5 mM diaminofluorescein diacetate (DAF-2DA) (ex490/em520 nm) and ONOO^− was measured by 5 mM diaminorhodamine (DAR) (ex488/em515 nm). 1×10^5 HaCaT cells were seeded in 96-well plate one day before measurement. […] The cells were then incubated in dark for 2 h at room temperature and the fluorescence was measured by luminometer (Molecular devices Spectra Max M2). The reading was then normalized by AlamarBlue cell viability assay (Life technology). 10% of the Alamar Blue reagent was added to cells with medium followed by 2 h incubation at 37° C. in dark then read the fluorescent at ex570/em590 nm using luminometer (Molecular devices Spectra Max M2).
# (§3) Both NO* and ONOO^− are induced by UVB radiation. By using DAF-2DA (5 mM) and DAR (5 mM), the effect of carnosol on intracellular NO* and ONOO^− level, in a time dependent manner upon UVB radiation, was also measured.
# [2] = system: NO* in HaCaT cells; assay: Nitric oxide measurement (DAF-2DA) after UVB radiation; format: cell-based, Human; conditions: 20 μM carnosol
# Procedure: as §1, §2, §3
# [3] = system: HaCaT cells; assay: HaCaT transformation in soft agar after repeated UVB; format: cell-based, Human; conditions: 10 mJ/cm^2 UVB every 48 h for 14 days, soft agar 10 days; UVB alone about 3.5 fold
# Procedure: FIG. 8: Carnosol decreases HaCaT transformation rate upon UVB radiation. HaCaT cells were exposed to 10 mJ/cm^2 UVB radiation every 48 h for 14 days. Cells were then collected and equal amount of cells were then re-seeded into 96 well plate with soft agar. After 10 days of incubation, cells were stained and dissolved and the fluorescent intensity was determined. *p<0.05 versus control group, **p<0.05 versus UV group.
# HaCaT cells were exposed to 10 mJ/cm^2 UVB radiation every 48 h for 14 days. As only cancerous cells can survive in the soft-agar, by staining the survival cells with fluorescent dye, the cell transformation rate was determined.
# [4] = system: normal skin cells; assay: Cell proliferation with carnosol or its decomposed molecules (FIG. 11); format: cell-based
# Procedure: FIG. 11. The effect of carnosol or its decomposed molecules on cell proliferation was determined.
# UVB was generated from a Bench XX-Series UV Lamp (UVP Inc.) equipped with two 15-watt UVB tubes (UVP Inc.). The intensity of UVB was calibrated by a UVP model UVX digital radiometer (UVP Inc.) after the lamps warmed up for 5 min. For irradiating cells, the dose rate for 8 mJ/cm^2 or 50 mJ/cm^2 of UVB radiation was 0.8 or 3.8 mW/s respectively. Medium was removed before exposing the cells to UVB. After UVB radiation, fresh medium was added to the culture plates with or without drugs, and the cells were continue incubating at 37° C. with 5% CO2 until further analysis. Carnosol was disovled in DMSO and was irradiated with 50 mJ/cm^2 of UVB radiation at a dose rate of 3.8 mW/s before subjecting to cells or structure analysis using Mass Spectrum.
# [5] = system: IκB; assay: Western blot for IκB protein level, MEF cells; format: cell-based, mouse; conditions: 20 μM carnosol, 6 h post UVB
# Procedure: FIGS. 7A-7F: Carnosol inhibited UVB-induced NF-κB activation. Cells were exposed to UVB radiation in the presence or absence of carnosol. Cells were lysed at indicated time point and protein levels were measured by western blot analysis. (FIG. 7A) Western blot for IκB protein level in HaCaT cells at 2, 4 h post UVB radiation at 1, 10 or 20 μM carnosol treatment. (FIG. 7B) Western blot analysis for IκB protein level in HaCaT cells at 6 h post UVB radiation in the presence or absence of carnosol. (FIG. 7C) Western blot analysis for IκB protein level in MEF cells at 6 h post UVB radiation in the presence or absence of carnosol. (FIG. 7D) Western blot for 5276 site phosphorylation of NF-κB in HaCaT cells at 6 h post UVB with indicated carnosol concentration. (FIG. 7E) EMSA assay for HaCaT cells at 2, 4, 6 h post UVB radiation in the presence or absence of carnosol (20 μM). (FIG. 7F) Statistical analysis of the EMSA assay using two to three sets of independent experiments. *p<0.05 versus control group, **p<0.05 versus UV group at indicated time point.
# Cells were lysed with Nonidet P-40 (NP-40) lysis buffer (2% NP-40, 80 mM NaCl, 100 mM Tris-HCl pH 8.0, 0.1% SDS) with proteinase inhibitor mixture (Complete™, Roche Molecular Biochemicals) at indicated time point. […] Protein concentration was measured by Protein DC Assay kit (Bio-Rad Laboratories). […]
# [6] = system: p-Chk; assay: Immunostaining of p-Chk in HaCaT cells upon UVB radiation; format: cell-based, Human; conditions: immunofluorescence
# Description: FIG. 5C: Immunostaining of p-Chk in HaCaT cells upon UVB radiation with or without carnosol treatment. P-Chk was stained with green fluorescent, while nucleus was stained by DAPI. Scale indicates 20 μm.
# Both human keratinocyte (HaCaT) and mouse embryonic fibroblast (MEF) cells were used, and the protein levels of γH2AX and phosphor-Chk were used as DNA damage marker. […] Similar results are observed in MEF cells as both the phosphorylation level of H2AX and Chk reduced at early stage post UVB radiation (FIG. 5B). […] To further show the protection effect of carnosol on UVB-irradiated cell, a comet assay was performed. […] Thus, carnosol ast least partially protect the DNA damage from UVB radiation.
# [7] = average from 2 h to 24 h post UVB
compound,measurement,setting,value
CC(C)c1cc2c(c(O)c1O)[C@@]13CCCC(C)(C)[C@@H]1C[C@@H]2OC3=O [carnosol],reduction of ONOO^− level,[1]; [7],about 40%
same,ONOO^− level of cells without radiation,[1]; no UVB,little effect
same,reduction of NO* level,[2]; [7],about 40%
same,NO* level of cells without radiation,[2]; no UVB,little effect
same,cell transformation,[3],about 2.2 fold
same,protection of the UVB-irradiated cells (proliferation),[4],partial protection
same,cell proliferation / cell growth in normal skin cells,[4]; without UVB protection context,some effect in inhibiting cell proliferation
same,IκB protein level,[5],partial recovery of IκB level
same,UVB-induced expression level of p-Chk in nucleus,[6],significantly reduce
